In patent US12318365B2, “Inhibition of dipeptide repeat proteins” (ALS Therapy Development Institute, priority 2019, dated 2025):
No end group written: not given here.

Tested on: NSC-34 cells
Assay: Caspase-3 assay (apoptotic activity) in NSC-34 cells
Format: cell-based
Conditions: for DRP-induced apoptotic activity: DRP 0.01-3 μM, 24 h, compared to DMSO-treated controls
Excerpt: Caspase-3/CPP32 Assay: The caspase-3 assay is a fluorometric assay that measures apoptotic cell death. Apoptosis is a form of “programmed” cell death, in which a certain family of proteins inside the cell triggers a cascade of chemical reactions that result in the cell killing itself. One family of proteins involved in this process is the caspase protein family. Of the caspase proteins, caspase-2, 8, 9, and 10 are known as “initiators,” those that trigger the death cascade, and caspase-3, 6, and 7 are known as “executioners,” which carry out the actual killing of the cell. In a caspase-3 assay, cells treated with test compounds are lysed, and a substrate known as DEVD-AFC is added to the lysate. If active caspase-3 enzyme is present in the lysate, it will cleave AFC from the DEVD-AFC substrate, resulting in a fluorescent signal that can be quantified using a fluorescence microtiter plate reader. Thus, the apoptotic activity of cells treated with test compounds can be quantified. Greater fluorescence readings correspond to more apoptotic cell death.
Cells were plated in culture medium in 2 96-well plates at a density of 3.7×10^4 cells per well, and incubated overnight at 37° C., 5% CO2. The following day, immediately prior to addition of test compounds, existing culture medium was removed and replaced with staggered volumes of culture medium as in Example 1. A 10 mM stock of MS023 was thawed to room temperature and diluted as in Example 1. A 10 mM stock of GR15 (SEQ ID NO: 1) and a 10 mM stock of PR15 (SEQ ID NO: 2) were equilibrated to room temperature and diluted in warm culture medium to achieve a final concentration of 300 nM in wells.
The following conditions were plated in triplicate. Samples were surrounded by border wells on the outside of the plate filled with sterile Phosphate-buffered saline to prevent evaporation of volume in experimental wells during incubation; • Background (Culture medium only) • Untreated/“Cells Only” (Cells in culture medium) • DMSO Control (Cells treated only with the amount of DMSO that GR- and PR-treated cells were exposed to) • GR Only (Cells treated only with 300 nM GR15) (SEQ ID NO: 1) • Cells treated with […] GR15 (SEQ ID NO: 1) and one of the following doses of MS023: 60 μM, 30 μM, 10 μM, 3 μM, 1 μM. • PR Only (Cells treated only with 300 nM PR15) (SEQ ID NO: 2) • Cells treated with 300 nM PR15 (SEQ ID NO: 2) and one of the following doses of MS023: 60 μM, 30 μM, 10 μM, 3 μM, 1 μM. • Cells treated with only one of the following doses of MS023: 60 μM, 30 μM, 10 μM, 3 μM, 1 μM. • Positive controls (Cells treated with either 5 or 16 μM PAC-1 Caspase-3 activator)
Plates were incubated for 24 h at 37° C., 5% CO2. Cells were tested and data were analyzed using the procedure detailed in Caspase-3 assay kit instructions.
Cells were plated in culture medium in 2 96-well plates at a density of 3.7×10^4 cells per well, and incubated overnight at 37° C., 5% CO2. The following day, immediately prior to addition of test compounds, existing culture medium was removed and replaced with staggered volumes of culture medium as in Example 1. A 10 mM stock of MS023 was thawed to room temperature and diluted in warm culture medium to achieve final concentrations of 3, 1, 0.3, 0.1, 0.03, and 0.01 μM in plate. A 10 mM stock of GR15 (SEQ ID NO: 1) and a 10 mM stock of PR15 (SEQ ID NO: 2) were equilibrated to room temperature and diluted in warm culture medium to achieve a final concentration of 3 μM in wells.
The following conditions were plated in triplicate. […]

Molecule | DRP-induced apoptotic activity | dose dependence of abrogation of GR-induced apoptotic activity (300 nM GR15, 24 h, MS023 1-60 μM) | abrogation of GR-induced apoptotic activity (300 nM GR15, 24 h, doses 3 and 1 μM) | abrogation of GR-induced apoptotic activity (300 nM GR15, 24 h, doses 60, 30 and 10 μM) | dose dependence of abrogation of PR-induced apoptotic activity (300 nM PR15, 24 h, MS023 1-60 μM) | abrogation of PR-induced apoptotic activity (300 nM PR15, 24 h, all doses (1-60 μM)) | dose dependence of abrogation of GR-induced apoptotic activity (3 μM GR15, 24 h, MS023 0.01-3 μM) | abrogation of GR-induced apoptotic activity (3 μM GR15, 24 h, all doses (0.01-3 μM)) | abrogation of GR-induced apoptotic activity (3 μM GR15, 24 h, dose 3 μM) | dose dependence of abrogation of PR-induced apoptotic activity (3 μM PR15, 24 h, MS023 0.01-3 μM) | abrogation of PR-induced apoptotic activity (3 μM PR15, 24 h, all doses (0.01-3 μM)) | abrogation of PR-induced apoptotic activity (3 μM PR15, 24 h, dose 3 μM)
PRPRPRPRPRPRPRPRPRPRPRPRPRPRPR [PR15] | producing the most significant amount of apoptotic activity | – | – | – | – | – | – | – | – | – | – | –
CC(C)Oc1ccc(-c2c[nH]cc2CN(C)CCN)cc1 [MS023] | – | dose-dependently | fully abrogated | partially abrogated | dose-dependently | fully abrogated | dose-dependently abrogated | partially abrogated | fully abrogated | dose-dependently abrogated | partially abrogated | fully abrogated
GRGRGRGRGRGRGRGRGRGRGRGRGRGRGR [GR15] | producing the most significant amount of apoptotic activity | – | – | – | – | – | – | – | – | – | – | –
